{
  "source": "patent US7563570B2",
  "about": "“Method of determining a chemotherapeutic regimen for non small cell lung cancer based on BRCA1 expression” (Pangaea Biotech, priority 2004, dated 2009)",
  "key": {"[1]": {"test_system": "SKOV-3 human ovarian cancer cell line", "conditions": "cited from earlier work"}, "breast cancer cell line": {"test_system": "breast cancer cell line", "conditions": "BRCA1 mRNA determined by RT-QPCR; cited from earlier work"}, "[2]": {"test_system": "HCC1937 breast cancer cell line", "conditions": "HCC1937, BRCA1 reconstituted vs BRCA1-negative; cited from earlier work"}, "[3]": {"test_system": "Mouse models carrying conditional disruption of BRCA1", "conditions": "cited from earlier work"}, "[4]": {"test_system": "non-small-cell lung cancer (NSCLC) patients", "assay": "Neoadjuvant gemcitabine/cisplatin followed by surgery in stage IIB, IIIA and IIIB NSCLC patients, outcome by quartile of tumor BRCA1 mRNA expression", "format": "in vivo, human", "description": "In all patients, neoadjuvant chemotherapy was indicated after evaluation by a thoracic surgeon, a radiologist, a medical oncologist, and a radiation oncologist. Patients received three cycles of neoadjuvant chemotherapy; 51 received cisplatin 100 mg/m^2 day 1 plus gemcitabine 1250 mg/m^2 days 1 and 8 every 21 days, and four received carboplatin AUC=5 day 1 plus gemcitabine 1000 mg/m^2 days 1 and 8 every 21 days. A thoracotomy was performed within four to five weeks after the last chemotherapy cycle; the surgical procedure was based on the extent of tumor at the time of the initial presentation.\nWe examined BRCA1 gene expression in formalin-fixed, paraffin-embedded surgical resected specimens from the 55 patients as previously described: Specht K, et al. (2001) Am. J. Pathol., 158, 419-429: “Quantitative gene expression analysis in microdissected archival formalin-fixed and paraffin-embedded tumor tissue”; Krafft A E, et al. (1997) Mol. Diagn., 3, 217-230: “Optimization of the isolation and amplification of RNA from formalin fixed, paraffin-embedded tissue: The Armed Forces Institute of Pathology experience and literature review”. After standard tissue sample deparaffinization using xylene and alcohols, samples were lysed in a tris-chloride, EDTA, sodium dodecyl sulphate (SDS) and proteinase K containing buffer. RNA was then extracted with phenol-chloroform-isoamyl alcohol followed by precipitation with isopropanol in the presence of glycogen and sodium acetate. RNA was resuspended in RNA storage solution (Ambion Inc; Austin Tex., USA) and treated with DNAse I to avoid DNA contamination. cDNA was synthesized using M-MLV retrotranscriptase enzyme. Template cDNA was added to Taqman Universal Master Mix (AB; Applied Biosystems, Foster City, Calif., USA) in a 12.5-μl reaction with specific primers and probe for each gene. The primer and probe sets were designed using Primer Express 2.0 Software (AB). Quantification of gene expression was performed using the ABI Prism 7900HT Sequence Detection System (AB). Primers and probe for BRCA1 mRNA expression analysis were designed according to the Ref Seq NM_007294 (www.ncbi.nlm.nih.gov/LocusLink). Forward primer is located in exon 8 (position 4292 bp to 4317 bp), reverse primer in exon 9 (position 4336 bp to 4360 bp), and probe in the exon 8/9 junction (position 4313 bp to 4333 bp). The PCR product size generated with these primers was 69 bp. The primers and 5′ labeled fluorescent reporter dye (6FAM) probe were as follows: β-actin: forward 5′ TGA GCG CGG CTA CAG CTT 3′, reverse 5′ TCCTTAATGTCACGCACGATTT 3′, probe 5′ ACC ACC ACG GCC GAG CGG 3′; BRCA1: forward 5′GGCTATCCTCTCAGAGTGACATTTTA 3′, reverse 5′ GCTTTATCAGGTTATGTTGCATGGT 3′, probe 5′ CCA CTC AGC AGA GGG 3′.\nRelative gene expression quantification was calculated according to the comparative Ct method using β-actin as an endogenous control and commercial RNA controls (Stratagene, La Jolla, Calif.) as calibrators. Final results, were determined as follows: 2^−(ΔCt sample−ΔCt calibrator), where ΔCT values of the calibrator and sample are determined by subtracting the CT value of the target gene from the value of the β-actin gene. In all experiments, only triplicates with a standard deviation (SD) of the Ct value <0.20 were accepted. In addition, for each sample analyzed, a retrotranscriptase minus control was run in the same plate to assure lack of genomic DNA contamination (FIG. 1).\nIn order to provide an easily interpretable evaluation of the effect of BRCA1 mRNA expression, gene expression values were divided into quartiles. Interpatient variation coefficients were calculated to assess similarities between quartiles. Hazard ratios were calculated with the univariate Cox model, and comparison between Kaplan-Meier survival curves was performed with the log-rank test. […]"}, "[5]": {"conditions": "bottom quartile of BRCA1 levels"}, "[6]": {"conditions": "bottom quartile of BRCA1 levels, listed as Gemcitabine/Cisplatin"}, "[7]": {"conditions": "middle quartiles of BRCA1 levels"}, "[8]": {"conditions": "middle quartiles of BRCA1 levels, listed as Gemcitabine/Cisplatin"}, "[9]": {"conditions": "top quartile of BRCA1 levels, listed as Gemcitabine/Cisplatin"}},
  "data": [
    {"compound": "N.N.[Cl][Pt][Cl]", "note": "[cisplatin, cis-diaminodichloroplatinum]", "values": [
      {"measurement": "Change of drug resistance on upregulation of BRCA1 expression", "setting": "[1]", "value": "increased cisplatin resistance"},
      {"measurement": "Change of drug sensitivity on decreased BRCA1 mRNA expression", "setting": "breast cancer cell line", "value": "greater sensitivity"},
      {"measurement": "Increase in resistance on reconstitution of wild-type BRCA1", "setting": "[2]", "value": 20, "unit": "fold"}
    ]},
    {"compound": "COc1cccc2c1C(=O)c1c(O)c3c(c(O)c1C2=O)C[C@@](O)(C(=O)CO)C[C@@H]3O[C@H]1C[C@H](N)[C@H](O)[C@H](C)O1", "note": "[doxorubicin]", "values": [
      {"measurement": "Sensitivity of BRCA1-disrupted mouse models", "setting": "[3]", "value": "highly sensitive"}
    ]},
    {"compound": "COc1cc([C@@H]2c3cc4c(cc3[C@@H](O[C@@H]3O[C@@H]5CO[C@@H](C)O[C@H]5[C@H](O)[C@H]3O)[C@H]3COC(=O)[C@H]23)OCO4)cc(OC)c1O", "note": "[etoposide]", "values": [
      {"measurement": "Change of drug sensitivity on decreased BRCA1 mRNA expression", "setting": "breast cancer cell line", "value": "greater sensitivity"}
    ]},
    {"compound": "CC(=O)O[C@H]1C(=O)[C@@]2(C)[C@H]([C@H](OC(=O)c3ccccc3)[C@]3(O)C[C@H](OC(=O)[C@H](O)[C@@H](NC(=O)c4ccccc4)c4ccccc4)C(C)=C1C3(C)C)[C@]1(OC(C)=O)CO[C@@H]1C[C@@H]2O", "note": "[paclitaxel]", "values": [
      {"measurement": "Change of drug sensitivity on decreased BRCA1 mRNA expression", "setting": "breast cancer cell line", "value": "greater resistance"}
    ]},
    {"compound": "CC/C(=C(\\c1ccccc1)c1ccc(OCCN(C)C)cc1)c1ccccc1", "note": "[tamoxifen]", "values": [
      {"measurement": "Sensitivity of BRCA1-disrupted mouse models", "setting": "[3]", "value": "resistant"}
    ]},
    {"compound": "CC[C@]1(O)C[C@H]2CN(CCc3c([nH]c4ccccc34)[C@@](C(=O)OC)(c3cc4c(cc3OC)N(C=O)[C@H]3[C@@](O)(C(=O)OC)[C@H](OC(C)=O)[C@]5(CC)C=CCN6CC[C@]43[C@@H]65)C2)C1", "note": "[vincristine]", "values": [
      {"measurement": "Change of drug sensitivity on decreased BRCA1 mRNA expression", "setting": "breast cancer cell line", "value": "greater resistance"}
    ]},
    {"compound": "gemcitabine/cisplatin", "values": [
      {"measurement": "Patients who attained a complete pathologic response (T0N0)", "setting": "[4]; all in the bottom quartile of BRCA1 levels", "value": "Five"},
      {"measurement": "Median survival", "setting": "[4]; all patients", "value": 37.8, "unit": "months"},
      {"measurement": "Risk of death, hazard ratio", "setting": "[4]; bottom quartile compared to top quartile, unstratified", "value": 0.187},
      {"measurement": "Radiographic Response: Partial Response", "setting": "[4]; [5]", "value": 66.7, "unit": "%"},
      {"measurement": "Radiographic Response: Stable Disease", "setting": "[4]; [5]", "value": "(33.3) %"},
      {"measurement": "Surgical Results: Complete Resection", "setting": "[4]; [5]", "value": 93.3, "unit": "%"},
      {"measurement": "Radiographic Response: Progressive Disease", "setting": "[4]; bottom quartile of BRCA1 levels, number of patients", "value": 0, "unit": "N"},
      {"measurement": "Radiographic Response: Partial Response", "setting": "[4]; [6]", "value": "(66.7) %"},
      {"measurement": "Surgical Results: Complete Resection", "setting": "[4]; [6]", "value": "(93.3) %"},
      {"measurement": "Median survival", "setting": "[4]; bottom quartile of BRCA1 mRNA levels (0.28-0.61), 15 patients", "value": "not reached"},
      {"measurement": "Radiographic Response: Partial Response", "setting": "[4]; [7]", "value": 57.1, "unit": "%"},
      {"measurement": "Radiographic Response: Progressive Disease", "setting": "[4]; [7]", "value": "(7.1) %"},
      {"measurement": "Radiographic Response: Stable Disease", "setting": "[4]; [7]", "value": "(35.7) %"},
      {"measurement": "Surgical Results: Complete Resection", "setting": "[4]; [7]", "value": 78.6, "unit": "%"},
      {"measurement": "Radiographic Response: Partial Response", "setting": "[4]; [8]", "value": "(57.1) %"},
      {"measurement": "Surgical Results: Complete Resection", "setting": "[4]; [8]", "value": "(78.6) %"},
      {"measurement": "Median survival", "setting": "[4]; patients who underwent lobectomy", "value": 51.9, "unit": "months"},
      {"measurement": "Median survival", "setting": "[4]; patients who underwent pneumonectomy", "value": 25.8, "unit": "months"},
      {"measurement": "Risk of death, hazard ratio", "setting": "[4]; stratified by clinical stage, bottom quartile compared to top quartile", "value": 0.220},
      {"measurement": "Risk of death, hazard ratio", "setting": "[4]; stratified by clinical stage, two middle quartiles compared to top quartile", "value": 0.430},
      {"measurement": "Risk of death, hazard ratio", "setting": "[4]; stratified by pathologic stage, bottom quartile compared to top quartile", "value": 0.206},
      {"measurement": "Risk of death, hazard ratio", "setting": "[4]; stratified by pathologic stage, two middle quartiles compared to top quartile", "value": 0.294},
      {"measurement": "Radiographic Response: Partial Response", "setting": "[4]; top quartile of BRCA1 levels", "value": 58.3, "unit": "%"},
      {"measurement": "Radiographic Response: Progressive Disease", "setting": "[4]; top quartile of BRCA1 levels", "value": "(8.3) %"},
      {"measurement": "Radiographic Response: Stable Disease", "setting": "[4]; top quartile of BRCA1 levels", "value": "(33.3) %"},
      {"measurement": "Surgical Results: Complete Resection", "setting": "[4]; top quartile of BRCA1 levels", "value": 83.3, "unit": "%"},
      {"measurement": "Radiographic Response: Partial Response", "setting": "[4]; [9]", "value": "(58.3) %"},
      {"measurement": "Surgical Results: Complete Resection", "setting": "[4]; [9]", "value": "(83.3) %"},
      {"measurement": "Median survival", "setting": "[4]; top quartile of BRCA1 mRNA levels (2.45-10.43), 12 patients", "value": 12.7, "unit": "months"},
      {"measurement": "Risk of death, hazard ratio", "setting": "[4]; two middle quartiles compared to top quartile, unstratified", "value": 0.382},
      {"measurement": "Median survival", "setting": "[4]; two middle quartiles of BRCA1 mRNA levels (0.65-2.37), 28 patients", "value": 37.8, "unit": "months"}
    ]}
  ]
}
